Measured values taken from publication PMC6801739, “Antitumor Activity of a Novel Tyrosine Kinase Inhibitor AIU2001 Due to Abrogation of the DNA Damage Repair in Non-Small Cell Lung Cancer Cells” (International Journal of Molecular Sciences, 2019).

Tests used:
FLT3 = target: T1, FLT3 (Homo sapiens, UniProt P36888); experiment: In vitro kinase assay, IC50 (Reaction Biology Corp.); type: biochemical
T1 construct: purchased Eurofins Pharma Discovery (KinaseProfiler); IC50 values by Reaction Biology Corp

FLT3 (ITD) = FLT3 (ITD) (Homo sapiens, UniProt P36888, ITD); experiment: as above; type: biochemical
FLT4 = target: T2, FLT4 (Homo sapiens, UniProt P35916); experiment: as above; type: biochemical
T2 construct: purchased Eurofins Pharma Discovery (KinaseProfiler); IC50 values by Reaction Biology Corp

Abl = target: T3, Abl (Homo sapiens, UniProt P00519); experiment: Kinase profiling at 10 μM (Eurofins); type: biochemical; conditions: read-out: Inhibitory activity
T3 construct: purchased Eurofins Pharma Discovery (KinaseProfiler); IC50 values by Reaction Biology Corp

ARK5 = target: T4, ARK5 (Homo sapiens, UniProt O60285); experiment: Kinase profiling at 10 μM (Eurofins); type: biochemical; conditions: read-out: Inhibitory activity
T4 construct: purchased Eurofins Pharma Discovery (KinaseProfiler); IC50 values by Reaction Biology Corp

Aurora-A = target: T5, Aurora-A (Homo sapiens, UniProt O14965); experiment: Kinase profiling at 10 μM (Eurofins); type: biochemical; conditions: read-out: Inhibitory activity
T5 construct: purchased Eurofins Pharma Discovery (KinaseProfiler); IC50 values by Reaction Biology Corp

CDK2/cyclinA = target: T6, CDK2/cyclinA (Homo sapiens, UniProt P24941); experiment: Kinase profiling at 10 μM (Eurofins); type: biochemical; conditions: read-out: Inhibitory activity
T6 construct: purchased Eurofins Pharma Discovery (KinaseProfiler); IC50 values by Reaction Biology Corp

CDK5/p35 = target: T7, CDK5/p35 (Homo sapiens, UniProt Q00535); experiment: Kinase profiling at 10 μM (Eurofins); type: biochemical; conditions: read-out: Inhibitory activity
T7 construct: purchased Eurofins Pharma Discovery (KinaseProfiler); IC50 values by Reaction Biology Corp

c-KIT = target: T8, c-KIT (Homo sapiens, UniProt P10721); experiment: Kinase profiling at 10 μM (Eurofins); type: biochemical; conditions: read-out: Inhibitory activity
T8 construct: purchased Eurofins Pharma Discovery (KinaseProfiler); IC50 values by Reaction Biology Corp

DDR2 = target: T9, DDR2 (Homo sapiens, UniProt Q16832); experiment: Kinase profiling at 10 μM (Eurofins); type: biochemical; conditions: read-out: Inhibitory activity
T9 construct: purchased Eurofins Pharma Discovery (KinaseProfiler); IC50 values by Reaction Biology Corp

EGFR = target: T10, EGFR (Homo sapiens, UniProt P00533); experiment: Kinase profiling at 10 μM (Eurofins); type: biochemical; conditions: read-out: Inhibitory activity
T10 construct: purchased Eurofins Pharma Discovery (KinaseProfiler); IC50 values by Reaction Biology Corp

FGFR2 = target: T11, FGFR2 (Homo sapiens, UniProt P21802); experiment: Kinase profiling at 10 μM (Eurofins); type: biochemical; conditions: read-out: Inhibitory activity
T11 construct: purchased Eurofins Pharma Discovery (KinaseProfiler); IC50 values by Reaction Biology Corp

PDK1 = target: T12, PDK1 (Homo sapiens, UniProt O15530); experiment: Kinase profiling at 10 μM (Eurofins); type: biochemical; conditions: read-out: Inhibitory activity
T12 construct: purchased Eurofins Pharma Discovery (KinaseProfiler); IC50 values by Reaction Biology Corp

PIM-1 = target: T13, PIM-1 (Homo sapiens, UniProt P11309); experiment: Kinase profiling at 10 μM (Eurofins); type: biochemical; conditions: read-out: Inhibitory activity
T13 construct: purchased Eurofins Pharma Discovery (KinaseProfiler); IC50 values by Reaction Biology Corp

ROCK-I = target: T14, ROCK-I (Homo sapiens, UniProt Q13464); experiment: Kinase profiling at 10 μM (Eurofins); type: biochemical; conditions: read-out: Inhibitory activity
T14 construct: purchased Eurofins Pharma Discovery (KinaseProfiler); IC50 values by Reaction Biology Corp

TrkA = target: T15, TrkA (Homo sapiens, UniProt P04629); experiment: Kinase profiling at 10 μM (Eurofins); type: biochemical; conditions: read-out: Inhibitory activity
T15 construct: purchased Eurofins Pharma Discovery (KinaseProfiler); IC50 values by Reaction Biology Corp

A549 cells [1] = experiment: MTT cell viability assay, single drugs and combinations, CI scores; type: cell-based, human
Protocol: (§1) Cell viability was assessed using the MTT colorimetric assay. Cells (1 × 10^3 cells/well) were seeded into 96-well plates and treated with the various concentrations of each compound or combination of two compounds. After five days of treatment, 10 μL MTT (0.5 mg/mL) was added, and further incubated for 3 h. After removal of the supernatant, the resultant pellet was dissolved in DMSO. The absorbance of the resultant formazan was measured at 540 nm using a plate reader (Multiskan EX; ThermoLabsystems, Waltham, MA, USA).
(§2) CI scores were calculated using the CompuSyn software by Chou (CompuSyn Inc., Paramus, NJ) based on cell viability after treatment with single- and paired-drug concentrations. The CI equation for two drugs was used: CI=(D)A/(Dx)A+(D)B/(Dx)B where (Dx)A is the concentration of drug A alone that inhibits x%, (Dx)B is the concentration of drug B alone that inhibits x%, (D)A or (D)B is the portion of drug A or drug B in the combination (D)A + (D)B that inhibits x%.

H1299 cells [2] = experiment: as above; type: cell-based, human
Protocol: as §1, §2

HCT116 p53+/+ cells = experiment: MTT cell viability assay; type: cell-based, human; conditions: 5 days
Protocol: as §1
(§3) Supplementary Figure 1. AIU2001 inhibited the proliferation of various cancer cells. (A and B)
(§4) Human AML cells (Molm-13 and MV4-11; A) and human colorectal cancer (CRC) cells
(§5) (HCT116/p53+/+ and HCT116/p53-/-; B) were treated with AIU2001 at the indicated concentrations for
(§6) 5 days and viable cells were evaluated using the CCK-8 assay for AML cells and the MTT assay for
(§7) CRC cells. *p < 0.05, **p < 0.01, ***p < 0.001 versus respective vehicle controls.
(§8) (also on this page, place not known: ca ncer fo r 02468 Cell viability (%) 0 1 Cell viability (%) *** *** ***)

HCT116 p53-/- cells = experiment: MTT cell viability assay; type: cell-based, human; conditions: 5 days
Protocol: as §1, §3, §4, §5, §6, §7, §8

A549 cells [3] = experiment: Cell cycle analysis (PI, flow cytometry); type: cell-based, human; conditions: 5 μM
Protocol: (§9) Samples were collected at the indicated time points and fixed in 70% cold ethanol overnight. For cell cycle analysis, the fixed cells were treated with RNase for 20 min before addition of 50 μg/mL PI and analyzed using FACS Calibur™ (BD Biosciences, San Jose, CA, USA).

H1299 cells [4] = experiment: Cell cycle analysis (PI, flow cytometry); type: cell-based, human; conditions: 5 μM
Protocol: as §9

A549 cells [5] = experiment: Detection of intracellular ROS (CM-H2DCFDA, flow cytometry); type: cell-based, human; conditions: 5 μM, 24 h
Protocol: (§10) DMSO- or AIU2001-treated cells (5 × 10^5) were further treated with 10 μM CM-H2DCFH-DA for 30min and then washed with PBS before trypsinization. After detaching with trypsin, the cells were collected, washed, and resuspended in PBS. ROS inhibition was evaluated by treating cells with 5 mM NAC 2 h prior to AIU2001 treatment. Intracellular ROS levels were detected using a flow cytometer (CyFlow cube 6) at excitation/emission wavelengths of 488/525 nm.

H1299 cells [6] = experiment: as above; type: cell-based, human; conditions: 5 μM, 24 h
Protocol: as §10

FLT3(D835Y) = FLT3(D835Y) (Homo sapiens, UniProt P36888, D835Y); experiment: In vitro kinase assay, IC50 (Reaction Biology Corp.); type: biochemical; design: purchased Reaction Biology Corp. (Malvern, PA, USA)

T10 sequence (P00533 25-1210): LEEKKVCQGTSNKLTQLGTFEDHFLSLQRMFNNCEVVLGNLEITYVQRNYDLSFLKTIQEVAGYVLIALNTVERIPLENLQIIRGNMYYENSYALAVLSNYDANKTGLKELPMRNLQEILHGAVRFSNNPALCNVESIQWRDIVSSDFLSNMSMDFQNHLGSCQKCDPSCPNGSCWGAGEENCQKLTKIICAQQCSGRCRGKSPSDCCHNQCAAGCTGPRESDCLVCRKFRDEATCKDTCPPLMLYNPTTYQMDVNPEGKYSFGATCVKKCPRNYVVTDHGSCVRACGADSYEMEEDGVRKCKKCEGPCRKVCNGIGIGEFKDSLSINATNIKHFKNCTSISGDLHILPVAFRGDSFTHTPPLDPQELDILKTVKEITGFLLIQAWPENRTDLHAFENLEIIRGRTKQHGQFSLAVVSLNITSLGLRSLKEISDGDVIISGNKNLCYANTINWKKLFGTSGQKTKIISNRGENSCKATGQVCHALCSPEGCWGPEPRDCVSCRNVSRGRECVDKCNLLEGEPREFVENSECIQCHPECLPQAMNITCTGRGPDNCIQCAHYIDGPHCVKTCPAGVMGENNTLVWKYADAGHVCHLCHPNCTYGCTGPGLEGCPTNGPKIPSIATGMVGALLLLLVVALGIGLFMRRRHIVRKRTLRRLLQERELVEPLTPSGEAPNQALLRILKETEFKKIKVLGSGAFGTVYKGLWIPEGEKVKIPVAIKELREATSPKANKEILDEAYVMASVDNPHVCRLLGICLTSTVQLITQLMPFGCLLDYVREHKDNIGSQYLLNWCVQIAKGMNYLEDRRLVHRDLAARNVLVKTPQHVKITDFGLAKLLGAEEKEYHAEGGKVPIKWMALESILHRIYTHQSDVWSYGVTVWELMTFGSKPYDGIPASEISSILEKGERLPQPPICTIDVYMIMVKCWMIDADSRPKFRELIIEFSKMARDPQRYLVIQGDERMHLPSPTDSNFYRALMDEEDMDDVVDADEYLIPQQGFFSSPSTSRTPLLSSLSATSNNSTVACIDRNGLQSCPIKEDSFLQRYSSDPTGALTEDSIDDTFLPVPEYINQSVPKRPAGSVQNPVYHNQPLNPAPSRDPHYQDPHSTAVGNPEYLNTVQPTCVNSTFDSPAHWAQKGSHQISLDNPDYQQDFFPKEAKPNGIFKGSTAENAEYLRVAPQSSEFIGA
T11 sequence (P21802 22-821): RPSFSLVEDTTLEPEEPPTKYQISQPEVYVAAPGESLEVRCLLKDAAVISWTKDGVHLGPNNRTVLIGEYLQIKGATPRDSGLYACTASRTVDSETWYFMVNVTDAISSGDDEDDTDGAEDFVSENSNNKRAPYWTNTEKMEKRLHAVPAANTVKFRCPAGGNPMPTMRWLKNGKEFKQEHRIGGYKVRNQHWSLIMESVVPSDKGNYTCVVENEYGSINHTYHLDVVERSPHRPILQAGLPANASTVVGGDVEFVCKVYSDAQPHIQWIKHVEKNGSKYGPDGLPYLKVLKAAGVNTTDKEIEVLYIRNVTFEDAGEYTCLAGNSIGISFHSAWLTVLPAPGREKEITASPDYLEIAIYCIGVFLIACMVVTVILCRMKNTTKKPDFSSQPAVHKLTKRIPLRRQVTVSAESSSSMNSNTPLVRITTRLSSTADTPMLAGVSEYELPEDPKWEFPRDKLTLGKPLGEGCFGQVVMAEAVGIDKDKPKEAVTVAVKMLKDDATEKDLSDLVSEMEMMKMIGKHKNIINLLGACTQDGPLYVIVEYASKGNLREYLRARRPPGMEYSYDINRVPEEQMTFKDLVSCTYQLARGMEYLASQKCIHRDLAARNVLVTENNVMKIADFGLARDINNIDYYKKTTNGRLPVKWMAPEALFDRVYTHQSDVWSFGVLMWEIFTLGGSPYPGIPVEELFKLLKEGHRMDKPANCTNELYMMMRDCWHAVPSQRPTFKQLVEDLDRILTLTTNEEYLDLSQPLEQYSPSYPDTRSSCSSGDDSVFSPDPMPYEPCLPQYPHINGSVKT
T12 sequence (O15530 whole entry): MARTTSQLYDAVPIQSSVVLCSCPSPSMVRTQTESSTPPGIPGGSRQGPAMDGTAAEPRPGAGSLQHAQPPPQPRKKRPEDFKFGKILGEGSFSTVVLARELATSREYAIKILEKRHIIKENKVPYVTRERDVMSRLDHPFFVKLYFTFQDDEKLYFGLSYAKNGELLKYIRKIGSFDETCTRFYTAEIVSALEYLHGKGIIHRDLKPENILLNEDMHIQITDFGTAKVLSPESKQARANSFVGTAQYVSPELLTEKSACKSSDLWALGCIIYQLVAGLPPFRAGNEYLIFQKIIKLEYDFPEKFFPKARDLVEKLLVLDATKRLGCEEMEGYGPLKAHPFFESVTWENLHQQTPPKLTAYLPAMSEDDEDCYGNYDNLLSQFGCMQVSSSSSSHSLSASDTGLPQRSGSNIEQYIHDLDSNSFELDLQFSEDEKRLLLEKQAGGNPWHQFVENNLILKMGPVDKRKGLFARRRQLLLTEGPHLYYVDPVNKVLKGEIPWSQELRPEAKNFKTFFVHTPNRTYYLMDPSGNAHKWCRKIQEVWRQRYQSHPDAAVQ
T4 sequence (O60285 whole entry): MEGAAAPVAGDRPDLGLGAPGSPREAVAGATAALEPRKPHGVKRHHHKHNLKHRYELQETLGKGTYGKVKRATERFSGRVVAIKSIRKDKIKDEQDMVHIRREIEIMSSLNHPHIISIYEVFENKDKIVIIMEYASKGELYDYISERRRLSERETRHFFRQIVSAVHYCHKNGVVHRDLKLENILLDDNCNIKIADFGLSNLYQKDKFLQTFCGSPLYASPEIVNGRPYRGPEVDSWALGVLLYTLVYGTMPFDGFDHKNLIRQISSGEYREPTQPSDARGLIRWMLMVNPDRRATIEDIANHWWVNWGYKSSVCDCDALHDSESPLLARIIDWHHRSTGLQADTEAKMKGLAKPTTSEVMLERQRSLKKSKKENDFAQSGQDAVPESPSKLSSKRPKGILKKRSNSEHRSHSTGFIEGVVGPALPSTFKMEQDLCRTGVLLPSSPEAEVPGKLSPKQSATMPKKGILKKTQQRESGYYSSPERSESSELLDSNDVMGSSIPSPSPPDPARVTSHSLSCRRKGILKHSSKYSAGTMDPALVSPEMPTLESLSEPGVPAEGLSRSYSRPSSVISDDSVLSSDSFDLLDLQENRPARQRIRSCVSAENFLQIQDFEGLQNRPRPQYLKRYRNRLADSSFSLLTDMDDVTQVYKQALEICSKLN
T7 sequence (Q00535 whole entry): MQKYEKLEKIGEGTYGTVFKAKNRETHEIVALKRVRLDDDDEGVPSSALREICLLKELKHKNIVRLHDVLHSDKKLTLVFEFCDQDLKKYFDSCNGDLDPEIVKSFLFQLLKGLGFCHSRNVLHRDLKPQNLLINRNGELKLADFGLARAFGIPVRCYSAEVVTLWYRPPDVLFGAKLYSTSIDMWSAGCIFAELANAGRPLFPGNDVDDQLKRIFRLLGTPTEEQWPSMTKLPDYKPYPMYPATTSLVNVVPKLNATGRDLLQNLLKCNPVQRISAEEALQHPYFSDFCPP
T7 sequence (Q15078 whole entry partner): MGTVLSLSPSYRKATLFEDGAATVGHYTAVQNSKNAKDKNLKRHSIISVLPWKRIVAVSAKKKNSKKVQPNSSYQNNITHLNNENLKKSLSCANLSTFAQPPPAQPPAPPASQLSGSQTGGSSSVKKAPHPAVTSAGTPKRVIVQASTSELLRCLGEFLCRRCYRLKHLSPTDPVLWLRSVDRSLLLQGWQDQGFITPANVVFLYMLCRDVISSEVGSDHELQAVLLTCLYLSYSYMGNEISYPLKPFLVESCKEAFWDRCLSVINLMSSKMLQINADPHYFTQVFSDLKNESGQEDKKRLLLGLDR
T8 sequence (P10721 26-976): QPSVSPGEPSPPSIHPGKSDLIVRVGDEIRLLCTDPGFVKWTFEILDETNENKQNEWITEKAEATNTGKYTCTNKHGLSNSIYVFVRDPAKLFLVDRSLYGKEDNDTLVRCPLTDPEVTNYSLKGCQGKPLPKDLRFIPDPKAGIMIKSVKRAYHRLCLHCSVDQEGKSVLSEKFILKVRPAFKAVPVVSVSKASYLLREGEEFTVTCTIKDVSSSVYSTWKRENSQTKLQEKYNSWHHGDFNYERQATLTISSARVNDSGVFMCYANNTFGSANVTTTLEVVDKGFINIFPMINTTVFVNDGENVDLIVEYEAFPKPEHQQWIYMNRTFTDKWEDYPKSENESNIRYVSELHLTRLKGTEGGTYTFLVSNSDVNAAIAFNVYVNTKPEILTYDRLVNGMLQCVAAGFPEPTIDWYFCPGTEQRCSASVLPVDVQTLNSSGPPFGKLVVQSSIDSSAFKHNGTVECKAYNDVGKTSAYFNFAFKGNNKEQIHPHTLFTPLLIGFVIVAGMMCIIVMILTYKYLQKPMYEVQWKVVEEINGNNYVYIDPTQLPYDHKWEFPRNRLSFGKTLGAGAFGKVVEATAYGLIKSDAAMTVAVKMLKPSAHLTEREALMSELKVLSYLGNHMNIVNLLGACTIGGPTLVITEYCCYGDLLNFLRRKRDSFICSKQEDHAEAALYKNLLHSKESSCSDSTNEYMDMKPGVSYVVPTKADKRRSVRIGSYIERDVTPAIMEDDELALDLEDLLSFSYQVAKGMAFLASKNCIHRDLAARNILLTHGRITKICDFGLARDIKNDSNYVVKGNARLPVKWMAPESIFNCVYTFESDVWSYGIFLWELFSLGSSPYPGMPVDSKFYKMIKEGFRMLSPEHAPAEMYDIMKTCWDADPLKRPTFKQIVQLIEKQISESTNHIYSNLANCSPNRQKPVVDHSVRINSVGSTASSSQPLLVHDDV

IC50 (FLT3): 0.206 µM
IC50 (FLT3 (ITD)): 0.0632 µM
IC50 (FLT4): 0.786 µM
inhibition at 10 µM (Abl): 51%
inhibition at 10 µM (ARK5): 75%
inhibition at 10 µM (Aurora-A): 28%
inhibition at 10 µM (CDK2/cyclinA): 39%
inhibition at 10 µM (CDK5/p35): 58%
inhibition at 10 µM (c-KIT): ≥ 75%
inhibition at 10 µM (DDR2): 55%
inhibition at 10 µM (EGFR): 10%
inhibition at 10 µM (FGFR2): 1%
inhibition at 10 µM (PDK1): 19%
inhibition at 10 µM (PIM-1): 37%
inhibition at 10 µM (ROCK-I): 0%
inhibition at 10 µM (TrkA): 40%
IC50 (FLT3(D835Y)): 0.108 µM
SMILES: Brc1ccc(-c2cnc(Nc3cccc4ccccc34)o2)cc1 [AIU2001, 5-(4-bromophenyl)-N-(naphthalen-1-yl) oxazol-2-amine]
viability at 0.16 µM (A549 cells [1]; Homo sapiens, 120 h, Olaparib 0, AIU2001 0.16 μM, 5 days, panel A, read-out: Relative viability): 95.1%
viability at 0.32 µM (A549 cells [1]; Homo sapiens, 120 h, Olaparib 0, AIU2001 0.32 μM, 5 days, panel A, read-out: Relative viability): 95%
viability at 0.63 µM (A549 cells [1]; Homo sapiens, 120 h, Olaparib 0, AIU2001 0.63 μM, 5 days, panel A, read-out: Relative viability): 89%
viability at 1.25 µM (A549 cells [1]; Homo sapiens, 120 h, Olaparib 0, AIU2001 1.25 μM, 5 days, panel A, read-out: Relative viability): 86.5%
viability at 2.5 µM (A549 cells [1]; Homo sapiens, 120 h, Olaparib 0, AIU2001 2.50 μM, 5 days, panel A, read-out: Relative viability): 53.6%
viability at 5 µM (A549 cells [1]; Homo sapiens, 120 h, Olaparib 0, AIU2001 5.00 μM, 5 days, panel A, read-out: Relative viability): 31.6%
viability at 10 µM (A549 cells [1]; Homo sapiens, 120 h, Olaparib 0, AIU2001 10.00 μM, 5 days, panel A, read-out: Relative viability): 21.1%
Growth inhibition (A549 cells [1]; MTT, five days): significantly inhibited the growth
viability at 0.16 µM (H1299 cells [2]; Homo sapiens, NCI-H1299, 120 h, Olaparib 0, AIU2001 0.16 μM, 5 days, panel A, read-out: Relative viability): 101%
viability at 0.32 µM (H1299 cells [2]; Homo sapiens, NCI-H1299, 120 h, Olaparib 0, AIU2001 0.32 μM, 5 days, panel A, read-out: Relative viability): 93.7%
viability at 0.63 µM (H1299 cells [2]; Homo sapiens, NCI-H1299, 120 h, Olaparib 0, AIU2001 0.63 μM, 5 days, panel A, read-out: Relative viability): 94.2%
viability at 1.25 µM (H1299 cells [2]; Homo sapiens, NCI-H1299, 120 h, Olaparib 0, AIU2001 1.25 μM, 5 days, panel A, read-out: Relative viability): 90%
viability at 2.5 µM (H1299 cells [2]; Homo sapiens, NCI-H1299, 120 h, Olaparib 0, AIU2001 2.50 μM, 5 days, panel A, read-out: Relative viability): 65.5%
viability at 5 µM (H1299 cells [2]; Homo sapiens, NCI-H1299, 120 h, Olaparib 0, AIU2001 5.00 μM, 5 days, panel A, read-out: Relative viability): 26.2%
viability at 10 µM (H1299 cells [2]; Homo sapiens, NCI-H1299, 120 h, Olaparib 0, AIU2001 10.00 μM, 5 days, panel A, read-out: Relative viability): 15.4%
Growth inhibition (H1299 cells [2]; MTT, five days): significantly inhibited the growth
Growth inhibition (HCT116 p53+/+ cells): inhibited the growth
Growth inhibition (HCT116 p53-/- cells): inhibited the growth
Cell cycle effect (A549 cells [3]; 3 h, 6 h or 24 h): G2/M phase arrest
Cells in the sub-G1 phase (A549 cells [3]; 24 h): 3.3%
Cell cycle effect (H1299 cells [4]; 3 h, 6 h or 24 h): G2/M phase arrest
Cells in the sub-G1 phase (H1299 cells [4]; 24 h): 23.1%
ROS levels (A549 cells [5]): distinctly increased ROS levels
ROS levels (H1299 cells [6]): distinctly increased ROS levels
